In patent US20230346735A1, “Nutritional Composition Comprising Carnitine and Method for Treating or Preventing an Infection in a Mammal” (priority 2020, published 2023):

Test system: ACE-2
Assay: ACE-2 mRNA expression in Calu-3, RT real-time PCR
Assay type: cell-based, human
Conditions: Calu-3, 50 to 1,000 uM, 24 hr pre-treatment
Experimental: To quantify the human gene expression, Calu-3 seeded in a 12-well plate (220,000 cells) were stimulated with 100 uM, 500 uM and 1000 uM Carnitine alone for 24 h. RNA was extracted using TRIzol (Qiagen) as per standard protocol and total RNA was reverse transcribed using SuperScript II RT (Invitrogen). Expression levels of ACE-2 and TMPRSS2 were evaluated by SYBR real-time PCR using gene-specific primers as previously reported (Ma et al., Eye 2020;34:1212). GAPDH was used as an internal normalizer. […] Fold change in expression relative to that in untreated cells was determined using the standard ddCt method.

C[N+](C)(C)C[C@H](O)CC(=O)[O-] [L-carnitine]
ACE-2 mRNA levels: statistically significant downregulation
